Experimental data as given in article PMC10819019 (Pharmaceutics, 2024).

experiment: Metabolite profiling in rat liver microsomes; format: in vitro ADME; settings: microsomal incubation with 5-hydroxysaxagliptin in the presence of L-cysteine
Description: L-cysteine (100 mM), glutathione (2.5 mM), or UDPGA (5 mM) was added after pre-incubation with or without 100 mM L-cysteine at 37 °C for 5 min to an NADPH-generating system (1.3 mM of NADP^+, 3.3 mM of G6P, 1 unit/mL of G6PDH, and 3.3 mM of MgCl2) to initiate the microsomal reaction. The reaction was stopped by adding cold acetonitrile after microsomal incubation for 2 h.
In the presence of L-cysteine (100 mM) or glutathione (100 mM) in phosphate buffer (100 mM, pH of 7.4), 5-Hydroxysaxagliptin (100 μM) was incubated at 37 °C for 2 h. The supernatants were analyzed using high-resolution Orbitrap MS after incubation reaction termination and centrifugation.

SMILES	Metabolite detection in incubate of 5-hydroxysaxagliptin with L-cysteine
NC(C(=O)N1C(C2=NC(C(=O)O)CS2)CC2CC21)C12CC3CC(O)(CC(O)(C3)C1)C2 (stereo not shown) [Metabolite M4, 5-Hydroxysaxagliptin–cysteine conjugate]	detected

same assay, conditions: saxagliptin 100 μM, RLM 1 mg/mL, NADPH-generating system and/or L-cysteine, 2 h

SMILES	Metabolite detection in incubates of saxagliptin
N=C1NC(C23CC4CC(CC(O)(C4)C2)C3)N2C1CC1CC12 (stereo not shown) [Metabolite M1, Saxagliptin cyclic amidine]	found in the incubation sample of saxagliptin with buffer solution (Figure 5a) and RLM (Figure 5c) in the presence of +L-cysteine
N#CC1CC2CC2N1C(=O)C(N)C12CC3CC(O)(CC(O)(C3)C1)C2 (stereo not shown) [Metabolite M2, 5-Hydroxysaxagliptin]	observed in rat liver microsomal incubation samples regardless of the addition of L-cysteine
NC(C(=O)N1C(C2=NC(C(=O)O)CS2)CC2CC21)C12CC3CC(CC(O)(C3)C1)C2 (stereo not shown) [Metabolite M3, Saxagliptin–cysteine conjugate]	formed in an enzyme-nonspecific manner

experiment: not given; settings: cited from earlier work

SMILES	Stability on incubation with L-cysteine
Cn1c(=O)cc(N2CCC[C@@H](N)C2)n(Cc2ccccc2C#N)c1=O [alogliptin]	stable
Cc1cc2ncc(C(=O)NCC(C)(C)NCC(=O)N3CCC[C@H]3C#N)cn2n1 [anagliptin]	unstable
CC#CCn1c(N2CCC[C@@H](N)C2)nc2c1c(=O)n(Cc1nc(C)c3ccccc3n1)c(=O)n2C [linagliptin]	stable
N[C@@H](CC(=O)N1CCn2c(nnc2C(F)(F)F)C1)Cc1cc(F)c(F)cc1F [sitagliptin]	stable

experiment: Metabolite profiling in rats (bile, plasma, liver); format: in vivo, male Sprague–Dawley rats; settings: saxagliptin 100 mg/kg intraperitoneal injection, samples up to 4 h
Text: Male Sprague–Dawley (SD) rats (7 weeks old, 200–225 g) were purchased from SamTako Co. (Osan, Republic of Korea). The animals were acclimatized for one week in an animal facility at the College of Pharmacy, Kyungpook National University (Daegu, Republic of Korea). The Kyungpook National University Animal Care and Use Committee (KNU 2021-0120, 12 July 2021) approved the study protocol, conducted under the National Institutes of Health guidance for the care and use of laboratory animals. […] The bile duct was cannulated with polyethylene tubes (PE-10, Jungdo, Seoul, Republic of Korea) under isoflurane anesthesia (isoflurane vaporizer to 2% with oxygen flow at 0.8 L/min). […] Bile samples were then collected for 4 h. […] The liver tissues were immediately excised, gently washed with ice-cold saline-soaked wet tissue to remove the contaminated blood, and homogenized with 4 volumes of saline. Aliquots of plasma, bile, and 20% liver homogenates were stored at −80 °C until the analysis.
The liver homogenates were vortexed with the same volume of methanol/acetonitrile mixtures (1/1, v/v) and centrifuged (13,500× g, 10 min). The remaining pellets were reextracted twice, and pooled supernatants were dried and reconstituted with 50% methanol in water (100 μL) for LC-MS/MS analysis. Protein concentrations in the pellets were determined using a Bradford protein assay kit (Bio-Rad Laboratories, Hercules, CA, USA) with bovine serum albumin as a standard. The rat bile and plasma (200 μL) samples were vortexed with the same methanol/acetonitrile mixture volume (1/1, v/v). The mixture was centrifuged after vortexing, and the supernatants were dried to complete dryness and reconstituted with 50% methanol in water (100 μL) for LC-MS/MS analysis. The contents of biliverdin in the bile samples were analyzed by measuring ultraviolet absorbance at 380 nm using a microplate reader (Infinite M200 PRO, TECAN, Mannedorf, Switzerland) after 10-fold dilution with 50% methanol.

SMILES	Metabolite detection in rat bile, plasma and liver tissues
NC(C(=O)N1C(C2=NC(C(=O)O)CS2)CC2CC21)C12CC3CC(CC(O)(C3)C1)C2 (stereo not shown) [Metabolite M3, Saxagliptin–cysteine conjugate]	observed in rats
NC(C(=O)N1C(C2=NC(C(=O)NCC(=O)O)CS2)CC2CC21)C12CC3CC(CC(O)(C3)C1)C2 (stereo not shown) [Metabolite M5, Saxagliptin–cysteinylglycine conjugate]	found in rat bile, plasma, and liver tissues
NC(C(=O)N1C(C2=NC(C(=O)NCC(=O)O)CS2)CC2CC21)C12CC3CC(O)(CC(O)(C3)C1)C2 (stereo not shown) [Metabolite M6, 5-Hydroxysaxagliptin–cysteinylglycine conjugate]	observed in rats
N#CC1CC2CC2N1C(=O)C(N)C12CC3CC(CC(OS(=O)(=O)O)(C3)C1)C2 (stereo not shown) [Metabolite M7, Saxagliptin-O-sulfate]	only found in rat bile
N#CC1CC2CC2N1C(=O)C(N)C12CC3CC(CC(OC4OC(C(=O)O)C(O)C(O)C4O)(C3)C1)C2 (stereo not shown) [Metabolite M8, Saxagliptin-O-glucuronide]	observed in rat bile, plasma, and liver tissues
